Measurements published in the supplement of paper PMC10307832.

Key:
Test in all cases: relative viability (nuclei count vs DMSO), 5 days (fraction); higher = more cells survive
NCI-H727 = test system: NCI-H727
In short: (§1)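 Each reported value is a median over duplicate plates. It expresses relative viability: treated-well nuclei count divided by vehicle-well nuclei count. Lung cancer cell lines in 1536-well plates were dosed by pin tool a day after seeding, alone with one drug or with a fixed anchor-drug dose plus five library-drug doses (not always all listed) in √10 steps, and nuclei were counted after 5 days.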

BEN = test system: BEN
In short: as §1

NCI-H1944 = test system: NCI-H1944
In short: as §1

ABC-1 = test system: ABC-1
In short: as §1

NCI-H1651 = test system: NCI-H1651
In short: as §1

NCI-H460 = test system: NCI-H460
In short: as §1

NCI-H2023 = test system: NCI-H2023
In short: as §1

NCI-H520 = test system: NCI-H520
In short: as §1

201T = test system: 201T
In short: as §1

NCI-H661 = test system: NCI-H661
In short: as §1

NCI-H441 = test system: NCI-H441
In short: as §1

LCLC-97TM1 = test system: LCLC-97TM1
In short: as §1

NCI-H2087 = test system: NCI-H2087
In short: as §1

A-427 = test system: A-427
In short: as §1

LC-2-ad = test system: LC-2-ad
In short: as §1

NCI-H1915 = test system: NCI-H1915
In short: as §1

NCI-H596 = test system: NCI-H596
In short: as §1

NCI-H650 = test system: NCI-H650
In short: as §1

PC-3 [JPC-3] = test system: PC-3 [JPC-3]
In short: as §1

CAL-12T = test system: CAL-12T
In short: as §1

NCI-H1650 = test system: NCI-H1650
In short: as §1

H3255 = test system: H3255
In short: as §1

NC(=O)Nc1cc(-c2cccc(F)c2)sc1C(=O)N[C@H]1CCCNC1 [AZD7762] + Cc1cc(Nc2cc(N3CCN(C)CC3)nc(Sc3ccc(NC(=O)C4CC4)cc3)n2)n[nH]1 [Tozasertib] (partner 0.1 µM)
relative viability (NCI-H727; first compound 0.01 µM): 0.662 | relative viability (NCI-H727; first compound 0.03162 µM): 0.619 | relative viability (NCI-H727; first compound 0.1 µM): 0.525 | relative viability (NCI-H727; first compound 0.3162 µM): 0.596 | relative viability (NCI-H727; first compound 1 µM): 0.35 | relative viability (BEN; first compound 0.01 µM): 0.521 | relative viability (BEN; first compound 0.03162 µM): 0.465 | relative viability (BEN; first compound 0.1 µM): 0.539 | relative viability (BEN; first compound 0.3162 µM): 0.507 | relative viability (BEN; first compound 1 µM): 0.486 | relative viability (NCI-H1944; first compound 0.01 µM): 0.253 | relative viability (NCI-H1944; first compound 0.03162 µM): 0.257 | relative viability (NCI-H1944; first compound 0.1 µM): 0.285 | relative viability (NCI-H1944; first compound 0.3162 µM): 0.301 | relative viability (NCI-H1944; first compound 1 µM): 0.248 | relative viability (ABC-1; first compound 0.01 µM): 0.18 | relative viability (ABC-1; first compound 0.03162 µM): 0.178 | relative viability (ABC-1; first compound 0.1 µM): 0.16 | relative viability (ABC-1; first compound 0.3162 µM): 0.115 | relative viability (ABC-1; first compound 1 µM): 0.111 | relative viability (NCI-H1651; first compound 0.01 µM): 0.788 | relative viability (NCI-H1651; first compound 0.03162 µM): 0.769 | relative viability (NCI-H1651; first compound 0.1 µM): 0.74 | relative viability (NCI-H1651; first compound 0.3162 µM): 0.395 | relative viability (NCI-H1651; first compound 1 µM): 0.191 | relative viability (NCI-H460; first compound 0.01 µM): 0.506 | relative viability (NCI-H460; first compound 0.03162 µM): 0.394 | relative viability (NCI-H460; first compound 0.1 µM): 0.444 | relative viability (NCI-H460; first compound 0.3162 µM): 0.357 | relative viability (NCI-H460; first compound 1 µM): 0.031 | relative viability (NCI-H2023; first compound 0.01 µM): 0.374 | relative viability (NCI-H2023; first compound 0.03162 µM): 0.307 | relative viability (NCI-H2023; first compound 0.1 µM): 0.227 | relative viability (NCI-H2023; first compound 0.3162 µM): 0.105 | relative viability (NCI-H2023; first compound 1 µM): 0.0751 | relative viability (NCI-H520; first compound 0.01 µM): 0.493 | relative viability (NCI-H520; first compound 0.03162 µM): 0.36 | relative viability (NCI-H520; first compound 0.1 µM): 0.425 | relative viability (NCI-H520; first compound 0.3162 µM): 0.39 | relative viability (NCI-H520; first compound 1 µM): 0.275 | relative viability (201T; first compound 0.01 µM): 0.957 | relative viability (201T; first compound 0.03162 µM): 0.935 | relative viability (201T; first compound 0.1 µM): 0.98 | relative viability (201T; first compound 0.3162 µM): 1.03 | relative viability (201T; first compound 1 µM): 0.801 | relative viability (NCI-H661; first compound 0.01 µM): 0.357 | relative viability (NCI-H661; first compound 0.03162 µM): 0.368 | relative viability (NCI-H661; first compound 0.1 µM): 0.372 | relative viability (NCI-H661; first compound 0.3162 µM): 0.432 | relative viability (NCI-H661; first compound 1 µM): 0.396 | relative viability (NCI-H441; first compound 0.01 µM): 0.801 | relative viability (NCI-H441; first compound 0.03162 µM): 0.907 | relative viability (NCI-H441; first compound 0.1 µM): 0.908 | relative viability (NCI-H441; first compound 0.3162 µM): 0.925 | relative viability (NCI-H441; first compound 1 µM): 0.587 | relative viability (LCLC-97TM1; first compound 0.01 µM): 0.325 | relative viability (LCLC-97TM1; first compound 0.03162 µM): 0.263 | relative viability (LCLC-97TM1; first compound 0.1 µM): 0.225 | relative viability (LCLC-97TM1; first compound 0.3162 µM): 0.398 | relative viability (LCLC-97TM1; first compound 1 µM): 0.292 | relative viability (NCI-H2087; first compound 0.01 µM): 0.24 | relative viability (NCI-H2087; first compound 0.03162 µM): 0.266 | relative viability (NCI-H2087; first compound 0.1 µM): 0.323 | relative viability (NCI-H2087; first compound 0.3162 µM): 0.285 | relative viability (NCI-H2087; first compound 1 µM): 0.232 | relative viability (A-427; first compound 0.01 µM): 0.215 | relative viability (A-427; first compound 0.03162 µM): 0.218 | relative viability (A-427; first compound 0.1 µM): 0.207 | relative viability (A-427; first compound 0.3162 µM): 0.179 | relative viability (A-427; first compound 1 µM): 0.175 | relative viability (LC-2-ad; first compound 0.01 µM): 0.623 | relative viability (LC-2-ad; first compound 0.03162 µM): 0.55 | relative viability (LC-2-ad; first compound 0.1 µM): 0.449 | relative viability (LC-2-ad; first compound 0.3162 µM): 0.463 | relative viability (LC-2-ad; first compound 1 µM): 0.268 | relative viability (NCI-H1915; first compound 0.01 µM): 0.471 | relative viability (NCI-H1915; first compound 0.03162 µM): 0.497 | relative viability (NCI-H1915; first compound 0.1 µM): 0.483 | relative viability (NCI-H1915; first compound 0.3162 µM): 0.415 | relative viability (NCI-H1915; first compound 1 µM): 0.368 | relative viability (NCI-H596; first compound 0.01 µM): 0.978 | relative viability (NCI-H596; first compound 0.03162 µM): 0.83 | relative viability (NCI-H596; first compound 0.1 µM): 0.847 | relative viability (NCI-H596; first compound 0.3162 µM): 0.946 | relative viability (NCI-H596; first compound 1 µM): 0.793 | relative viability (NCI-H650; first compound 0.01 µM): 0.71 | relative viability (NCI-H650; first compound 0.03162 µM): 0.643 | relative viability (NCI-H650; first compound 0.1 µM): 0.709 | relative viability (NCI-H650; first compound 0.3162 µM): 0.704 | relative viability (NCI-H650; first compound 1 µM): 0.526 | relative viability (PC-3 [JPC-3]; first compound 0.01 µM): 0.859 | relative viability (PC-3 [JPC-3]; first compound 0.03162 µM): 0.891 | relative viability (PC-3 [JPC-3]; first compound 0.1 µM): 0.836 | relative viability (PC-3 [JPC-3]; first compound 0.3162 µM): 0.873 | relative viability (PC-3 [JPC-3]; first compound 1 µM): 0.85 | relative viability (CAL-12T; first compound 0.01 µM): 0.402 | relative viability (CAL-12T; first compound 0.03162 µM): 0.332 | relative viability (CAL-12T; first compound 0.1 µM): 0.353 | relative viability (CAL-12T; first compound 0.3162 µM): 0.168 | relative viability (CAL-12T; first compound 1 µM): 0.0999 | relative viability (NCI-H1650; first compound 0.01 µM): 0.482 | relative viability (NCI-H1650; first compound 0.03162 µM): 0.467 | relative viability (NCI-H1650; first compound 0.1 µM): 0.424 | relative viability (NCI-H1650; first compound 0.3162 µM): 0.207 | relative viability (NCI-H1650; first compound 1 µM): 0.118 | relative viability (H3255; first compound 0.01 µM): 0.704 | relative viability (H3255; first compound 0.03162 µM): 0.595 | relative viability (H3255; first compound 0.1 µM): 0.677 | relative viability (H3255; first compound 0.3162 µM): 0.591 | relative viability (H3255; first compound 1 µM): 0.576
